Patent US20030187261A1, “Purine derivatives, process for their preparation and use thereof” (priority 2000, published 2003)
One block for each compound: values may come before it.

Experiments:
HIV-2 [1] = assay: anti-HIV-2 activity in CEM cells; assay type: cell-based
Protocol: (§6) The infected cell cultures were incubated at 37° C. for 5 days in a humidified CO2 incubator. The cytopathicity of the virus was examined by determination of MT-4 cell viability by trypan blue dye staining.

HIV-1 [2] = settings: CEM cells
Protocol: as §6

HIV-2 [3] = assay: HIV-2-induced cytopathicity in MT-4 cells; assay type: cell-based; settings: for HIV-2 MT-4 IC50: MT-4 cells, 5 days
Protocol: as §6

MSV = assay: MSV-induced transformation in murine embryo fibroblast C3H/3T3 cells; assay type: cell-based; settings: day 6 post infection
Protocol: The cells were seeded in 1-ml-wells of 48-well plates and exposed to 80 PFU (plaque forming units) for 60-90 min. The virus was subsequently removed and culture medium containing appropriate concentrations of the tested compounds was added (1 ml per well). At day 6-post infection, MSV-induced transformation of the cell culture was examined microscopically. The results are summarised in Table 9 in comparison with the data on the prototype compounds.

HIV-1 [4] = settings: for HIV-1 MT-4 IC50: MT-4 cells, 5 days
Protocol: as §6

[5] = test system: T-lymphoblastic leukemia cell line CEM; assay: MTT cytotoxicity assay, CEM; assay type: cell-based, human; settings: 72 hours (TCS50 in the method)
Text: (§1) One of the parameters used as the basis for colorimetric assays is the metabolic activity of viable cells. For example, a microtiter assay, which uses the tetrazolium salt MTT, is now widely used to quantitate cell proliferation and cytotoxicity. For instance, this assay is used in drug screening programs and in chemosensitivity testing. Because only metabolically active cells cleave tetrazolium salts, these assays detect viable cells exclusively. In the case of MTT assay, yellow soluble tetrazolium salt is reduced to coloured water-insoluble formazan salt. After it is solubilized, the formazan formed can easily and rapidly be quantified in a conventional ELISA plate reader at 570 nm (maximum absorbance). The quantity of reduced formazan corresponds to number of vital cells in the culture. Human T-lymphoblastic leukemia cell line CEM; promyelocytic HL-60 and monocytic U937 leukemias; breast carcinoma cell lines MCF-7, BT549, MDA-MB-231; glioblastoma U87MG cells; cervical carcinoma cells HELA; sarcoma cells U20S and Saos2; hepatocellular carcinoma HepG2; mouse immortalized bone marrow macrophages B2.4 and B10A.4; P388D1 and L1210 leukemia; B16 and B16F10 melanomas were used for routine screening of the compounds according to the invention. The cells were maintained in Nunc/Corning 80 cm^2 plastic tissue culture flasks and cultured in cell culture medium (DMEM with 5 g/l glucose, 2 mM glutamine, 100 U/ml penicillin, 100 μg/ml streptomycin, 10% fetal calf serum and sodium bicarbonate).
(§2) The cell suspensions that were prepared and diluted according to the particular cell type and the, expected target cell density (2500-30000 cells per well based on cell growth characteristics) were added by pipette (80 μl) into 96-well microtiter plates. Inoculates were allowed a pre-incubation period of 24 hours at 37° C. and 5% CO2 for stabilisation. Four-fold dilutions of the intended test concentration were added at time zero in 20 μl aliquots to the microtiter plate wells. Usually, test compound was evaluated at six 4-fold dilutions. In routine testing, the highest well concentration was 266.7 μM, but it can be the matter of change dependent on the agent. All drug concentrations were examined in duplicates. Incubations of cells with the test compounds lasted for 72 hours at 37° C., in 5% CO2 atmosphere and 100% humidity. At the end of incubation period, the cells were assayed by using the MTT. Ten microliters of the MTT stock solution were pipetted into each well and incubated further for 1-4 hours. After this incubation period, formazan was solubilized by addition of 100 μl/well of 10% SDS in water (pH=5.5) followed by further incubation at 37° C. overnight. The optical density (OD) was measured at 540 nm with the Labsystem iEMS Reader MF (UK). The tumour cell survival (TCS) was calculated using the following equation: TCS=(ODdrug exposed well/mean ODcontrol wells)×100%. The TCS50 value, the drug concentration lethal to 50% of the tumour cells, was calculated from the obtained dose response curves.
(§3) The cytoxicity of novel compounds was tested on panel of cell lines of different histogenetic and species origin (Table 7). Equal activities were found in all tumour cell lines tested. […] Importantly, this observation distinguishes the purine derivatives of the invention from flavopiridol and related compounds, as their biological activity is dependent on p53 status.

CDC2 = molecular target: T1, CDC2 (Homo sapiens, UniProt P06493); assay: p34cdc2 (CDC2) kinase inhibition assay, histone H1 substrate; assay type: biochemical; settings: Table 3
T1 construct: made in house; host or cells: Sf9 insect cells, baculovirus co-infection

MPF activity = assay: M-phase promoting factor inhibition in metaphase-arrested Xenopus egg extracts; assay type: biochemical; settings: 1.5 h after addition
Protocol: (§4) Metaphase-arrested Xenopus egg extracts were prepared as described previously by Blow “J. Cell Biol.” 1993, 122:993 and stored in liquid nitrogen. Demembranated Xenopus sperm nuclei were prepared as described by Blow & Laskey “Cell” 1986;47:577.
(§5) At concentrations of cdk inhibitors (see Table 6) ranging from 0.1-2 μM, chromosomes remained highly condensed and no nuclear envelope was visible. At 4-6 μM and higher concentrations, interphase nuclei appeared with partially decondensed chromatin and an intact nuclear envelope. […] For the inhibition effect to become detectable, the first 15-min incubation of the interphase extract is probably sufficient.

DNA synthesis = DNA synthesis in Xenopus egg extracts ([α-32P]dATP incorporation); assay type: biochemical; settings: [α-32P]dATP incorporation after 3 h; read-out: Inhibition of DNA synthesis IC50
Protocol: as §4, §5

B16 melanoma = assay: MTT cytotoxicity assay, B16; assay type: cell-based, mouse; settings: 72 hours (TCS50 in the method)
Text: as §1, §2, §3

IκB-α = IκB-α kinase-inhibitory activity; assay type: biochemical; settings: Table 3
Text: Modification of 2,6,9-trisubstituted purines by a catechol-like substituent at R6 leads to an increase in cdk inhibitory activity of the tested compounds.

normal human lymphocytes = assay: concanavalin A induced lymphocyte proliferation, [3H]-TdR incorporation; assay type: cell-based; settings: 72 hours, read-out: ED50 (the source's name)
Protocol: Human heparinized peripheral blood was obtained from healthy volunteers by cubital vein punction. The blood was diluted in PBS (1:3) and mononuclear cells were separated by centrifugation in Ficoll-Hypaque density gradient (Pharmacia, 1.077 g/ml) at 2200 rpm for 30 minutes. Following centrifugation, lymphocytes were washed in PBS and resuspended in cell culture medium (RMPI 1640, 2 mM glutamine, 100 U/ml penicillin, 100 μg/ml streptomycin, 10% fetal calf serum and sodium bicarbonate).
The cells were diluted at target density of 1100000 cells/ml and were added by pipette (180 μl) into 96/well microtiter plates. Four-fold dilutions of the intended test concentration were added at time zero in 20 μl aliquots to the microtiter plate wells. Usually, test compound was evaluated at six 4-fold dilutions. In routine testing, the highest well concentration was 266.7 μM. All drug concentrations were examined in duplicates. All wells with exception of unstimulated controls were activated with 50 μl of concanavalin A (25 μg/ml). Incubations of cells with test compounds lasted for 72 hours at 37° C., in 5% CO2 atmosphere and 100% humidity. At the end of incubation period, the cells were assayed by using the [^3H]-TdR:
Cell cultures were incubated with […] (20 μl of stock solution 500 μCi/ml) per well for 6 hours at 37° C. and 5% CO2. The automated cell harvester was used to lyse cells in water and adsorb the DNA onto glass-fiber filters in the format of microtiter plate. The DNA incorporated [^3H]-TdR was retained on the filter while unincorporated material passes through. The filters were dried at room temperature overnight, sealed into a sample bag with 10-12 ml of scintillant. The amount of [^3H]-TdR present in each filter (in cpm) was determined by scintillation counting in a Betaplate liquid scintillation counter. The effective dose of immunosuppressant (ED) was calculated using the following equation: ED=(cpmdrug exposed well/mean cpmcontrol wells)×100%. The EDs50 value, the drug concentration inhibiting proliferation of 50% of lymphocytes, was calculated from the obtained dose response curves.
To evaluate immunosuppressive activity of substituted adenines, their ability to inhibit polyclonal mitogen induced proliferation of normal human lymphocytes was analyzed (Table 8). […] Effective immunosuppressive dose of new derivatives under in vitro conditions was close to 1-20 μM.

retroviruses = assay: anti-retroviral activity in vitro; assay type: cell-based
Protocol: as §6

the cells = settings: at 100 μg/ml

T1 sequence (P06493 whole entry, species assumed): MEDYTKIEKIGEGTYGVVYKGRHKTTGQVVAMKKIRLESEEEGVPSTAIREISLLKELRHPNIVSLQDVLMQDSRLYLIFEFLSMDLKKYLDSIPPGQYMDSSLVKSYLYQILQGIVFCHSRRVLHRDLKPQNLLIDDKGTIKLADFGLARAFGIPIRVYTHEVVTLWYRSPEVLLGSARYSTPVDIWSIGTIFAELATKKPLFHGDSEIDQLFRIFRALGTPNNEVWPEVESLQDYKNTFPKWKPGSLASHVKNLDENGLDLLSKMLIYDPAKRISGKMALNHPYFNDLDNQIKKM
T1 sequence (P14635 whole entry partner, species assumed): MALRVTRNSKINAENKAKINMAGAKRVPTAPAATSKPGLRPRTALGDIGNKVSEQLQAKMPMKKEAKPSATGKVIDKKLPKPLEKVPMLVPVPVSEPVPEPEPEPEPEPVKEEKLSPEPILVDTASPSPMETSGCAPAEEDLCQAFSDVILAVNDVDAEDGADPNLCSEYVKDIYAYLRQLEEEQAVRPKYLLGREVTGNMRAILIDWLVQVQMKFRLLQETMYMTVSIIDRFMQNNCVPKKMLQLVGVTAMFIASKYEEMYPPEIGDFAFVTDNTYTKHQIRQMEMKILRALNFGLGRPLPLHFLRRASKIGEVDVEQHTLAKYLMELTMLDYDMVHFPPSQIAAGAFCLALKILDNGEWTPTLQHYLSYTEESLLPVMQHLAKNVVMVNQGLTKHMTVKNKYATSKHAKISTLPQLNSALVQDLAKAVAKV

SMILES: Nc1nc(NCc2ccc(O)c(O)c2)c2ncn(CCOCP(=O)(O)O)c2n1
HIV-2 CEM IC50 (HIV-2 [1]): >20 µg/mL
HIV-1 CEM IC50 (HIV-1 [2]): >20 µg/mL

SMILES: CN(CCc1ccc(O)c(O)c1)c1nc(N)nc2c1ncn2CCOCP(=O)(O)O
HIV-2 MT-4 IC50 (HIV-2 [3]): 32 µg/mL
HIV-2 CEM IC50 (HIV-2 [1]): >20 µg/mL
MSV IC50 (MSV): 0.9 µg/mL
HIV-1 CEM IC50 (HIV-1 [2]): >20 µg/mL

SMILES: CC(Cn1cnc2c(NCc3ccc(O)c(O)c3)nc(N)nc21)OCP(=O)(O)O (centres unmarked)
HIV-1 MT-4 IC50 (HIV-1 [4]): 3.2 µg/mL
HIV-2 CEM IC50 (HIV-2 [1]): 8.3 µg/mL

SMILES: CC(Cn1cnc2c(N(C)CCc3ccc(O)c(O)c3)nc(N)nc21)OCP(=O)(O)O (centres unmarked)
HIV-2 MT-4 IC50 (HIV-2 [3]): 3.2 µg/mL
HIV-2 CEM IC50 (HIV-2 [1]): 7.8 µg/mL

SMILES: CC(Cn1cnc2c(NC(CO)c3ccccc3)nc(N)nc21)OCP(=O)(O)O (centres unmarked)
HIV-1 MT-4 IC50 (HIV-1 [4]): 10.1 µg/mL
HIV-2 CEM IC50 (HIV-2 [1]): >20 µg/mL
HIV-1 CEM IC50 (HIV-1 [2]): >20 µg/mL

IC50 (CDC2): 0.95 µM
IC50 (MPF activity): 1.12 µM
IC50 (DNA synthesis): 1.3 µM
IC50 (IκB-α): 3.2 µM
SMILES: CC[C@H](CO)Nc1nc(N(C)CCc2ccc(O)c(O)c2)c2ncn(C(C)C)c2n1
IC50 [5]: 6 µM
IC50 (B16 melanoma): 6 µM
EC50 (normal human lymphocytes): 1.5 µM

SMILES: Nc1nc(NC(CO)c2ccccc2)c2ncn(CCOCP(=O)(O)O)c2n1 (racemic)
HIV-2 CEM IC50 (HIV-2 [1]): >20 µg/mL
HIV-1 CEM IC50 (HIV-1 [2]): >20 µg/mL

SMILES: C[C@H](Cn1cnc2c(N)nc(N)nc21)OCP(=O)(O)O [(R)-PMPD]
selectivity index (ratio cytotoxic dose/antivirally active dose) (HIV-2 [3]; HIV-2): higher than 2000
EC50 retrovirus replication (retroviruses): 0.01 to 0.1 µg/mL
selectivity index (ratio cytotoxic dose/antivirally active dose) (HIV-1 [4]; HIV-1): higher than 2000
toxicity to the cells (the cells): not toxic
